Measured values reported in PubChem BioAssay AID1159559 (GlaxoSmithKline (GSK), 2015).
Active and inactive are the calls of the source.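 Rule for the calls: active = compounds whose IC50 against parasite growth in infected mouse cells is below 50000 nM; inactive = the rest.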

What follows are molecules tested on T. cruzi Tulahuen in NIH-3T3, beta-gal fluorescence, 4 d (assay: T. cruzi intracellular growth inhibition, cell-based (AID 1159559)).

Row | SMILES | IC50
1 | Clc1ccc(CN2CCN(C3=NCCN3)CC2)cc1Cl | 1300 nM
2 | Cc1nc2nc(C)c(Cc3ccc(C(C)C)cc3)c(=O)n2[nH]1 | 500 nM
3 | O=C1NCc2cccc(Nc3nc(NC4CCC(O)CC4)ncc3Br)c21 (stereo not given) | 630 nM
4 | O=C(CN(Cc1ccccn1)Cc1ccccn1)NCc1ccc(-c2csnn2)cc1 | 4000 nM
5 | O=C(c1ccc(Cl)cc1)c1ccc(OC(=O)N2CCOCC2)cc1 | 13000 nM
6 | COc1cccc(C(=O)[C@H]2C[C@@H]2CN(Cc2ccccn2)Cc2ccccn2)c1 | 1300 nM
7 | CS(=O)(=O)c1ccccc1C(=O)N(Cc1ccccc1)c1ccccc1 | 50000 nM
8 | CC(=O)Nc1ccc(-c2ccnc(Nc3cccc(C#N)c3)n2)cc1 | 6300 nM
9 | CCN(C)Cc1ccc(N2CCC(NS(=O)(=O)c3ccc4c(c3)CCO4)CC2)nc1 | 630 nM
10 | Cc1[nH]n2c(=O)c3c(nc2c1-c1ccc(Cl)cc1)CCCC3 | 400 nM
11 | CC(C)CC(=O)Nc1cc(C2CC2)nn1-c1nc2c(c(=O)[nH]1)CCCC2 | 790 nM
12 | Cc1cc(Nc2cc(C3CC3)[nH]n2)nc(N2CCC[C@H]2C(N)=O)n1 | 130 nM
13 | COc1cc(C2SCC(=O)Nc3c2c(C)nn3-c2nc3ccccc3s2)cc(OC)c1O (stereo not given) | > 50000 nM (inactive)
14 | COCc1cnc2c(c1SCc1c(F)cccc1Cl)c(=O)n(C)c(=O)n2C | > 50000 nM (inactive)
15 | CCN(CC)S(=O)(=O)c1ccc(C)c(NC(=O)c2cc(Cl)c3c(c2)OCO3)c1 | 6300 nM
16 | O=S(=O)(c1ccccc1C(F)(F)F)N1CCN(Cc2ccc(-n3ccnc3)cc2)CC1 | 250 nM
17 | CN(C)CCN(C)Cc1ccc(Cl)cc1NS(=O)(=O)c1ccc(Cl)c(Cl)c1 | 1000 nM
18 | Cc1nn(-c2nc(N)nc(-c3ccccn3)n2)c(N)c1-c1ccccc1 | 4000 nM
19 | O=S1N=C(NCCCN(Cc2ccc(F)cc2)c2ccccn2)C(NCc2ccncc2)=N1 (stereo not given) | 32000 nM
20 | CCCC(=O)N(Cc1ccccn1)c1nc2ccccc2s1 | 130 nM
21 | CC(CCc1ccccc1)NC(=O)CN(Cc1ccccn1)Cc1ccccn1 (stereo not given) | 2500 nM
22 | Cc1cc(NC(=O)C2CCCCC2)n(-c2nc3c(c(=O)[nH]2)CCC3)n1 | 320 nM
23 | CN(C)CCOc1ccc(N2CCN(S(=O)(=O)c3ccc(Cl)cc3)CC2)cc1 | 630 nM
24 | CS(=O)(=O)N1CCC(Nc2ncc(Br)c(Nc3cccc(F)c3C(N)=O)n2)CC1 | 320 nM
25 | CS(=O)(=O)c1ccc(CC(=O)Nc2nc(-c3ccc(Cl)s3)cs2)cc1 | 400 nM
26 | COc1ccc(-c2cc(C)no2)cc1S(=O)(=O)Nc1ccc(F)c(Cl)c1 | 1600 nM
27 | O=C(NCCc1csc(-c2ccc(F)cc2)n1)c1ccco1 | 2000 nM
28 | CN(CC1CCCO1)S(=O)(=O)c1ccc(C(=O)Nc2nc(-c3ccccn3)cs2)cc1 (stereo not given) | 1600 nM

Row | SMILES | IC50
29 | Cc1c(C#N)c([N+](=O)[O-])nn1Cc1cccc(Cl)c1Cl | 200 nM
30 | O=C1OCc2ccc(Nc3nccc(-c4cnn5ncccc45)n3)cc21 | 25 nM
31 | COc1ccc(C2C3CCCCC3(O)CCN2CC(=O)Nc2ccc(Cl)cc2Cl)cc1 (stereo not given) | 2500 nM
32 | c1ccc(-c2nc(NCc3ccco3)c3ccccc3n2)nc1 | 6300 nM
33 | O=C(NCC(c1cccnc1)N1CCc2ccccc2C1)C(=O)Nc1cccc(Cl)c1 (stereo not given) | 200 nM
34 | COc1cc(Nc2nccc(Nc3onc(C)c3C)n2)cc(S(=O)(=O)C2CCOCC2)c1 | 6300 nM
35 | CC(C)(C)c1cc(NC2CC2)nc(-c2ccccn2)n1 | 1300 nM
36 | Cc1cc(NC(=O)CC2CCCCC2)n(-c2nc3c(c(=O)[nH]2)CCC3)n1 | 250 nM
37 | O=C(CN1CCN(S(=O)(=O)c2cccc([N+](=O)[O-])c2)CC1)Nc1ccc(Oc2ccccc2)cc1 | 2500 nM
38 | c1cncc(CN(Cc2ccco2)Cc2cn[nH]c2-c2cccs2)c1 | 20 nM
39 | CCS(=O)(=O)Nc1ccc(C2=NN(C(=O)c3cccs3)C(c3ccccc3OC)C2)cc1 (stereo not given) | 7900 nM
40 | Cc1nccn1C1CCCN(C(=O)c2cc3c(F)cccc3s2)C1 (stereo not given) | 630 nM
41 | Cc1ccc(C)c(OC2CCN(C(=O)C(C)n3ccnc3)CC2)c1 (stereo not given) | 160 nM
42 | Cc1nc(N2CC(C)OC(C)C2)sc1C(=O)Nc1ccc2c(c1)OCO2 (stereo not given) | 2000 nM
43 | Nc1nc(-c2ccccn2)nc(N)c1Cc1c(F)cccc1Cl | 1600 nM
44 | Cc1c(C(C)NC(=O)Nc2cccc(Cl)c2)sc2ncnn12 (stereo not given) | 130 nM
45 | Cc1ccc(NC(=O)c2ccnc(N3CCCC3)c2)cc1-c1ccsc1C(N)=O | 13000 nM
46 | COc1ccc(Cl)cc1CC(=O)Nc1n[nH]c(-c2ccccn2)n1 | 10000 nM
47 | Cc1ccccc1NS(=O)(=O)c1ccc2[nH]cc(C(=O)NC3CCCCC3)c(=O)c2c1 | 10000 nM
48 | Fc1ccc(Nc2nc(-c3ccccn3)cs2)cc1 | 2500 nM
49 | c1cc(-c2ncc(-c3ccn[nH]3)s2)ccn1 | 160 nM
50 | CNc1cncc(C2CCCN2C(=O)Cc2ccc3ccccc3c2)n1 (stereo not given) | 79 nM
51 | Oc1cccnc1-c1n[nH]c(Cc2ccccc2)n1 | 6300 nM
52 | Nc1nccc(-c2csc(Nc3ccc(Cl)cc3)n2)n1 | 1300 nM
53 | O=C(NC1CCN(C2Cc3ccc(NS(=O)(=O)c4cc(F)cc(F)c4)cc3C2)CC1)C1CC1 (stereo not given) | > 50000 nM (inactive)
54 | NCc1csc(Nc2cc(Oc3ccccc3)ncn2)n1 | 32000 nM
55 | Cc1nc2c(-c3ncn[nH]3)cc(NC(=O)Cc3ccccc3)cn2c1C | 1000 nM
